Bridge positions count the residues as written; N and C are the ends. Square brackets hold non-standard residues; d marks the D form.
B1: Compound 6 (peptide)
peptide: cyclo(ELVWCT[dP]PDCAWHLG)
modifications: disulfide 5-10; not fully specified (residue 8); also: one triazole-linked (2-(6-(but-3-yn-1-yloxy)-3,4,5-trihydroxytetrahydro-2H-pyran-2-yl)ethyl)phosphonic acid group on the PEG8 linker
B2: Compound 9 (peptide)
peptide: cyclo(ELVWCT[dP]PDCAWHLG)
modifications: disulfide 5-10; not fully specified (residue 8); also: branched PEG linker structure not given here
B3: Compound 11 (peptide)
peptide: cyclo(ELVWCT[dP]PDCAWHLG)
modifications: disulfide 5-10; not fully specified (residue 8); also: one triazole-linked A77 group on the PEG8 linker
B4: Compound 10 (peptide)
peptide: cyclo(ELVWCT[dP]PDCAWHLG)
modifications: disulfide 5-10; not fully specified (residue 8); also: trivalent linker structure not given here
B5: Compound 1 (peptide)
peptide: cyclo(ELVWCT[dP]PDCAWHLG)
modifications: disulfide 5-10; not fully specified (residue 8); also: trivalent linker structure not given here

Assays:
[1] = target: T1, Insulin-like growth factor 2 receptor (IGF-1IR, cation-independent mannose-6-phosphate receptor, CI-MPR; hIGF-IIR) (Homo sapiens, UniProt P11717); test: HTRF-based ternary complex inhibition assay for relative affinity of IGF-IIR ligands; settings: competition with MTAC probe for His-tagged hIGF-IIR; biotinylated IgG1; apparent binding affinity; read-out: TCF INH (HTRF) IC50
T1 construct: purchased R&D Systems 6418-GR
Description: The apparent binding affinity of Insulin-like growth factor 2 receptor (IGF-1IR, also called the cation- independent mannose-6-phosphate receptor (CI-MPR)) ligands was determined indirectly by competing with a probe molecule for binding to IGF-1IR. The probe is a Mannose 6-Phosphate Ligand (“Ligand”) and binds to hIGF-IIR and IgG1 to form a hIGF-IIR: Ligand: IgG1 ternary complex. The ternary complex was detected by an HTRF readout. The ternary complex is disrupted in the presence of IGF-1IR ligand, resulting in decreased HTRF signal. IGF-1IR ligands of 3-fold dilution series were prepared from 10 mM DMSO stock on a 384-well LDV microplate using Echo Acoustic Liquid Handler (Beckman Coulter Life Sciences) followed by transfer of 600 nL of the solutions to an OptiPlate 384-well microplate (PerkinElmer, 6007290). Manose-6-phosphate (M6P; J&K, 530168) and glucose-6-phosphate (G6P; Sigma, V900924) were prepared from 100 mM stock in the same manner and were used as positive and negative controls, respectively. The wells used as 0% and 100% inhibition controls were prepared by adding 600 nL DMSO. 20 nL of 50 μM MTAC probe was transferred to all wells except the wells used as 100% Inhibition control. 9.4 μL working solution containing 65.1 nM of Biotinylated-IgG1 (Viva 20211108) and 65.1 nM of His-tagged hIGF-IIR (R&D Systems, 6418-GR) in assay buffer 50 mM Tris, pH 7.5, 150 mM NaCl, 50 mM CaCl2, 0.01% Tween-20 was transferred to all wells. The plate was incubated at room temperature for 60 min with gentle shaking to allow molecular interaction to reach equilibration. Following this, 10 μL of HTRF detection solution containing 15 nM Streptavidin-d2 (PerkinElmer, 610SADLA) and 0.7 nM MAb Anti 6HIS—Tb cryptate (PerkinElmer, 61HISTLA) in PPI Terbium detection buffer (PerkinElmer, 61DB10RDF) was added. The assay plate was incubated at room temperature with gentle shaking for 60 min to allow HTRF signal to develop. The plate was gently spun on a centrifuge then placed on a EnVision plate reader (Perkin Elmer, EnVision 2104) to read fluorescence ratio of 665 nm/615 nm. Percent inhibitions were calculated with this equation: % I=100* [1−(X−100% I/(0% I−100% I)] where X is the […] in the presence of IGF-1IR ligand. The apparent binding affinity (presented as IC50) was calculated by fitting the % inhibition data with a non-linear 4-parameter inhibition equation using GraphPad Prism (GraphPad Software, LLC; version 9.4.1).

[2] = target: Biotinylated-IgG1 (Viva 20211108); test: HTRF ternary complex formation: compound titrated into 60 nM biotinylated IgG1 + 60 nM His-tagged hIGF-IIR (R&D 6418-GR); grade read by the legend '<50 nM = ***'

Row | Molecule | IC50 [1] [µM] | EC50 [2] [µM]
1 | C#CCOc1cccc(CP(=O)(O)CC[C@H]2OC(Oc3ccc(OC)cc3)[C@@H](O)[C@@H](O)[C@@H]2O)c1 (stereo partly drawn) [Compound A59, (3-prop-2-ynoxyphenyl)methyl-[2-[(2R,3S,4S,5S)-3,4,5-trihydroxy-6-(4-methoxyphenoxy)tetrahydropyran-2-yl]ethyl]phosphinic acid] | < 10 | –
2 | O=P(O)(CC[C@H]1OC(O)[C@@H](O)[C@@H](O)[C@@H]1O)Cc1c(F)cccc1F (stereo partly drawn) [Compound A60, (2,6-difluorobenzyl) (2-((2R,3S,4S,5S)-3,4,5,6-tetrahydroxytetrahydro-2H-pyran-2-yl)ethyl)phosphinic acid] | 10 to 100 | –
3 | CC(=O)N1C[C@@H](O)[C@@H](O)[C@H](O)[C@H]1CCP(=O)(O)O [Compound A61, (2-((2R,3R,4R,5R)-1-acetyl-3,4,5-trihydroxypiperidin-2-yl)ethyl)phosphonic acid] | 10 to 100 | –
4 | COc1ccc(OC2O[C@H](CCP(=O)(O)C(O)c3ccccc3)[C@@H](O)[C@H](O)[C@@H]2O)cc1 (stereo partly drawn) [Compound A74, (hydroxy (phenyl)methyl) (2-((2R,3S,4S,5S)-3,4,5-trihydroxy-6-(4-methoxyphenoxy)tetrahydro-2H-pyran-2-yl)ethyl)phosphinic acid] | < 10 | –
5 | COc1ccc(OC2O[C@H](CCP(=O)(O)CC#C[Si](C)(C)C)[C@@H](O)[C@H](O)[C@@H]2O)cc1 (stereo partly drawn) [Compound A75, 2-[(2R,3S,4S,5S)-3,4,5-trihydroxy-6-(4-methoxyphenoxy)tetrahydropyran-2-yl]ethyl-(3-trimethylsilylprop-2-ynyl)phosphinic acid] | 10 to 100 | –
6 | Nc1ccc2c(c1)Cc1cc(O[C@H]3O[C@H](CCP(=O)(O)O)[C@@H](O)[C@H](O)[C@@H]3O)ccc1-2 [Compound A76, (2-((2R,3S,4S,5S,6R)-6-((7-amino-9H-fluoren-2-yl)oxy)-3,4,5-trihydroxytetrahydro-2H-pyran-2-yl)ethyl)phosphonic acid] | < 10 | –
7 | C#CCP(=O)(O)CC[C@H]1OC(Oc2ccc(OC)cc2)[C@@H](O)[C@@H](O)[C@@H]1O (stereo partly drawn) [Compound A77, prop-2-yn-1-yl(2-((2R,3S,4S,5S)-3,4,5-trihydroxy-6-(4-methoxyphenoxy)tetrahydro-2H-pyran-2-yl)ethyl)phosphinic acid] | 10 to 100 | –
8 | COc1ccc(OC2O[C@H](CCP(=O)(O)CC3=CCCC3)[C@@H](O)[C@H](O)[C@@H]2O)cc1 (stereo partly drawn) [Compound A78, (cyclopent-1-en-1-ylmethyl) (2-((2R,3S,4S,5S)-3,4,5-trihydroxy-6-(4-methoxyphenoxy)tetrahydro-2H-pyran-2-yl)ethyl)phosphinic acid] | < 10 | –
9 | O=P(O)(CC[C@H]1O[C@H](Oc2ccc3c(c2)Cc2ccccc2-3)[C@@H](O)[C@@H](O)[C@@H]1O)Cc1c(F)cccc1F [Compound A79, (2-((2R,3S,4S,5S,6R)-6-((9H-fluoren-2-yl)oxy)-3,4,5-trihydroxytetrahydro-2H-pyran-2-yl)ethyl) (2,6-difluorobenzyl)phosphinic acid] | < 10 | –
10 | COc1ccc(OC2O[C@H](CCP(=O)(O)CC(F)(F)F)[C@@H](O)[C@H](O)[C@@H]2O)cc1 (stereo partly drawn) [Compound A80, (2,2,2-trifluoroethyl) (2-((2R,3S,4S,5S)-3,4,5-trihydroxy-6-(4-methoxyphenoxy)tetrahydro-2H-pyran-2-yl)ethyl)phosphinic acid] | 10 to 100 | –
11 | COc1ccc(OC2O[C@H](CCP(=O)(O)Cc3ccccc3)[C@@H](O)[C@H](O)[C@@H]2O)cc1 (stereo partly drawn) [Compound A81, benzyl(2-((2R,3S,4S,5S)-3,4,5-trihydroxy-6-(4-methoxyphenoxy)tetrahydro-2H-pyran-2-yl)ethyl)phosphinic acid] | < 10 | –
12 | COc1ccc(OC2O[C@H](CCP(=O)(O)CC3CCCC3)[C@@H](O)[C@H](O)[C@@H]2O)cc1 (stereo partly drawn) [Compound A82, (cyclopentylmethyl) (2-((2R,3S,4S,5S)-3,4,5-trihydroxy-6-(4-methoxyphenoxy)tetrahydro-2H-pyran-2-yl)ethyl)phosphinic acid] | < 10 | –
13 | C#CCCCCNC(=O)Nc1ccc2c(c1)Cc1cc(O[C@H]3O[C@H](CCP(=O)(O)O)[C@@H](O)[C@H](O)[C@@H]3O)ccc1-2 [Compound A83, (2-((2R,3S,4S,5S,6R)-6-((7-(3-(hex-5-yn-1-yl)ureido)-9H-fluoren-2-yl)oxy)-3,4,5-trihydroxytetrahydro-2H-pyran-2-yl)ethyl)phosphonic acid] | < 10 | –
14 | O=P(O)(O)CC[C@H]1O[C@H](c2cn(-c3ccccc3)nn2)[C@@H](O)[C@@H](O)[C@@H]1O [Compound A84, (2-((2R,3S,4S,5S,6R)-3,4,5-trihydroxy-6-(1-phenyl-1H-1,2,3-triazol-4-yl)tetrahydro-2H-pyran-2-yl)ethyl)phosphonic acid] | < 10 | –
15 | CC(C)(C)OC(=O)N1CCC(n2cc([C@H]3O[C@H](CCP(=O)(O)O)[C@@H](O)[C@H](O)[C@@H]3O)nn2)CC1 [Compound A85, (2-((2R,3S,4S,5S,6R)-6-(1-(1-(tert-butoxycarbonyl)piperidin-4-yl)-1H-1,2,3-triazol-4-yl)-3,4,5-trihydroxytetrahydro-2H-pyran-2-yl)ethyl)phosphonic acid] | < 10 | –
16 | O=P(O)(O)CC[C@H]1O[C@H](c2cn(C3CCNCC3)nn2)[C@@H](O)[C@@H](O)[C@@H]1O [Compound A86, (2-((2R,3S,4S,5S,6R)-3,4,5-trihydroxy-6-(1-(piperidin-4-yl)-1H-1,2,3-triazol-4-yl)tetrahydro-2H-pyran-2-yl)ethyl)phosphonic acid] | < 10 | –
17 | B1 | – | < 0.05
18 | B2 | – | < 0.05
19 | B3 | – | < 0.05
20 | B4 | – | < 0.05
21 | B5 | – | < 0.05

From patent US20260131007A1, “Mannose 6-Phosphate Receptor Binding Compounds for the Degradation of Extracellular Proteins” (Avilar Therapeutics, Inc., priority 2023, published 2026)
